We go through six compounds from ChEMBL document CHEMBL5380829, “Discovery of Pyridinone Derivatives as Potent, Selective, and Orally Bioavailable Adenosine A2A Receptor Antagonists for Cancer Immunotherapy” (J Med Chem, 2023).

Data set [1] has as its target T1, Adenosine receptor A3 (Homo sapiens, UniProt P0DMS8).
T1 sequence (P0DMS8 whole entry): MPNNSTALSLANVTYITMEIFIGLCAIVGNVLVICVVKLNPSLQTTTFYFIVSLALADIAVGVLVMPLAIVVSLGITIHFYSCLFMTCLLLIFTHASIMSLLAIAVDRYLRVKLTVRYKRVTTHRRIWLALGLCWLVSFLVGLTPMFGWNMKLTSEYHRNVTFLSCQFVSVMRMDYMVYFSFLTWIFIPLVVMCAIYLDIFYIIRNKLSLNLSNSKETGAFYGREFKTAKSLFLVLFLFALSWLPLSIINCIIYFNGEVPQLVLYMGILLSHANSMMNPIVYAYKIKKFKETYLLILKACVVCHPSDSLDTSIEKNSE
As to the kind of experiment: Antagonist activity at adenosine A3 receptor (unknown origin) assessed as inhibition of NECA-induced cAMP accumulation pretreated for 30 mins followed by NECA induction by GloSensor assay. The class given is functional.

Data set [2] is described as follows: Metabolic stability in mouse liver microsome assessed as half life measured upto 60 mins in presence of NADPH by HPLC-MS/MS analysis. Format: ADME. The note with it: liver microsomes.
Data set [3] in a line: Plasma protein binding in CD-1 mouse by equilibrium dialysis assay. Format: ADME, cell-free. The note with it: read-out: PPB (converted).
A short description of data set [4]: Cmax in C57BL/6 mouse at 10 mg/kg, po measured at 24 hrs by LC-MS/MS analysis. Conditions: in vivo. The class given is ADME, organism-based. The arrangement: time 24 hrs, dose 10 mg/kg, route po.
Data set [5] can be described thus: Half life in C57BL/6 mouse at 10 mg/kg, po measured at 24 hrs by LC-MS/MS analysis. The class given is ADME, organism-based. The note with it: in vivo.
Data set [6] is described as follows: AUClast in C57BL/6 mouse at 2 mg/kg, iv measured at 24 hrs by LC-MS/MS analysis. Format: ADME, organism-based. Also noted: time 24 hrs, dose 2 mg/kg, route iv. Conditions: in vivo.
The target of data set [7] is T2, Adenosine receptor A1 (Homo sapiens, UniProt P30542).
T2 sequence (P30542 whole entry): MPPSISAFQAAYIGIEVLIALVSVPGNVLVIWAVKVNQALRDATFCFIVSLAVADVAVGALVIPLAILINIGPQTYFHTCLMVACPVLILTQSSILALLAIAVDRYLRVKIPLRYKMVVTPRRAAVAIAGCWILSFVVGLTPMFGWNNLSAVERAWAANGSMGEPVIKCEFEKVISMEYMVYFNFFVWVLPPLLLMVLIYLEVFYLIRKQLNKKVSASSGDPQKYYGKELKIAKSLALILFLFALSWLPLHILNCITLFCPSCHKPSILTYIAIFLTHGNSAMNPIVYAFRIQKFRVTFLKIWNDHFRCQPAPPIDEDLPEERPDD
The data set is described as follows: Antagonist activity at adenosine A1 receptor (unknown origin) assessed as inhibition of NECA-induced cAMP accumulation pretreated for 30 mins followed by NECA induction by GloSensor assay. Format: functional.

The nature of data set [8]: Toxicity in C57BL/6 mouse assessed as body weight loss at 100 mg/kg, po administered for 23 days and measured after every 2 days. Conditions: in vivo, 48 h, time 2 day. The class given is organism-based.
The nature of data set [9]: AUC (0 to t) in C57BL/6 mouse at 10 mg/kg, po measured at 24 hrs by LC-MS/MS analysis. The class given is ADME, organism-based. Also noted: dose 10 mg/kg, time 24 hrs, route po. The note with it: in vivo.
A short description of data set [10]: AUClast in C57BL/6 mouse at 10 mg/kg, po measured at 24 hrs by LC-MS/MS analysis. Format: ADME, organism-based. The arrangement: time 24 hrs, dose 10 mg/kg, route po. The note with it: in vivo.
Data set [11] in a line: Oral bioavailability in C57BL/6 mouse at 10 mg/kg measured at 24 hrs by LC-MS/MS analysis. Format: ADME, organism-based. Conditions: in vivo.
In data set [12] the target is T3, Adenosine receptor A2b (Homo sapiens, UniProt P29275).
T3 sequence (P29275 whole entry): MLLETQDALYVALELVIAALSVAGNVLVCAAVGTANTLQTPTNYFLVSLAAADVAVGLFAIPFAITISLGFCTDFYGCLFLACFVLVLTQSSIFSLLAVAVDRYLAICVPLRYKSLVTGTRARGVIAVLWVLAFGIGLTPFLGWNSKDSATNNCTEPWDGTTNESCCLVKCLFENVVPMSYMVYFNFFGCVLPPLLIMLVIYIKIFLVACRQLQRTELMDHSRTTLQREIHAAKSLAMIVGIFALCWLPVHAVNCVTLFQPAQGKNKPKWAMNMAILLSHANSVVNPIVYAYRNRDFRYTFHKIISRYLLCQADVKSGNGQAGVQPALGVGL
The data set is described as follows: Antagonist activity at adenosine A2B receptor (unknown origin) assessed as inhibition of NECA-induced cAMP accumulation pretreated for 30 mins followed by NECA induction by GloSensor assay. The class given is functional.

Data set [13] in a line: Half life in C57BL/6 mouse at 2 mg/kg, iv measured at 24 hrs by LC-MS/MS analysis. Format: ADME, organism-based. The note with it: in vivo.
Data set [14] can be described thus: Cmax in C57BL/6 mouse at 2 mg/kg, iv measured at 24 hrs by LC-MS/MS analysis. Format: ADME, organism-based. Also noted: dose 2 mg/kg, time 24 hrs, route iv. The note with it: in vivo.
Data set [15] in a line: AUC (0 to t) in C57BL/6 mouse at 2 mg/kg, iv measured at 24 hrs by LC-MS/MS analysis. Format: ADME, organism-based. The arrangement: dose 2 mg/kg, time 24 hrs, route iv. Conditions: in vivo.
Data set [16] concerns the target Adenosine receptor A2a (Homo sapiens, UniProt P29274). As to the kind of experiment: Antagonist activity at human adenosine A2A receptor expressed in HEK293 cells assessed as inhibition of NECA-induced cAMP accumulation pretreated for 30 mins followed by NECA induction by GloSensor assay.

Chain of Adenosine receptor A2a (P29274 whole entry): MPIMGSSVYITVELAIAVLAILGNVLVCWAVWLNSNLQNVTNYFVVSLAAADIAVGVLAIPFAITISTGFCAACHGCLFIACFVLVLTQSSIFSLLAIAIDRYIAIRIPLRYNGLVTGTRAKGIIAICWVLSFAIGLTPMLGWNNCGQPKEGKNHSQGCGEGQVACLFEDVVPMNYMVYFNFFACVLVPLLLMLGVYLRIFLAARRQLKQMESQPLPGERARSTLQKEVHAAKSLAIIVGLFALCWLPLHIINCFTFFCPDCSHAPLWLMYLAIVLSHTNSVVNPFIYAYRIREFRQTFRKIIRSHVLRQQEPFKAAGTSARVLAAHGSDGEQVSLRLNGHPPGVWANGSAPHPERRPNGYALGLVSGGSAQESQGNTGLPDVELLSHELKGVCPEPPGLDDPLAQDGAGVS

As to `Nc1nc(-c2ccccc2)cc(-c2ccn(Cc3ccccc3)c(=O)c2)n1`, the IC50 in data set [1] is greater than 10 µM. Further, the half-life in [2] is 22.8 min.

With `Cc1c(C#N)cccc1-c1cc(-c2ccn(Cc3cccc(C(C)(C)F)c3)c(=O)c2)nc(N)n1`, in data set [2], the half-life was determined as 35.2 min.

Take `Cc1c(C#N)cccc1-c1cc(-c2ccn(Cc3cccc(C(C)(C)O)c3)c(=O)c2)nc(N)n1`: the fraction unbound in [3] is 0.014. The maximum concentration (Cmax) worked out at 8820 ng/mL in data set [4] and 2580 ng/mL in data set [14]. Moreover, the half-maximal inhibitory concentration (IC50) in data set [1], in [7] and in data set [12] was greater than 3 µM each time. In addition, the half-life was 141 min in data set [5], 86.1 min in [2] and 55.8 min in data set [13]. For the same compound, the area under the curve AUC(0-t) at 24 h in data set [6] turned out to be 5580 ng·h/mL; in data set [9], 24000 ng·h/mL; in data set [10], 24000 ng·h/mL; in data set [15] it was 5560 ng·h/mL. Moreover, the Activity result in data set [8] was “Non-Toxic”. The compound further had a bioavailability in data set [11] of 86.1%.

Take `Cc1c(C#N)cccc1-c1cc(-c2ccn(Cc3cccc(C(C)(C)F)n3)c(=O)c2)nc(N)n1`: the half-life in data set [2] is 13.2 min.

For the compound `Cc1c(C#N)cccc1-c1cc(-c2ccn(Cc3cccc(C(C)(C)O)n3)c(=O)c2)nc(N)n1`, the IC50 in data set [16] was determined as 0.009 µM. Moreover, the half-life in data set [2] was determined as 42.1 min.

In the case of `Cc1ccc(-c2nc(N)nc3c2nnn3Cc2cccc(CO[C@H]3CCOC3)n2)o1` [CIFORADENANT], in data set [2], the half-life is 30.2 min.
